System: NF-κB
Assay: LPS-stimulated NF-κB activation in RAW264.7 murine macrophage (gel shift with biotin-labelled NF-κB consensus sequence)
Type: cell-based
Details: RAW264.7, 1 μM compound 22 h, then 1 μg/ml LPS 2 h; FIG. 2
Procedure: [Measurement of LPS-stimulated NF-κB activation in RAW264.7 murine macrophage strain] The murine macrophage RAW264.7 is preserved in DMEM containing 10% fetal bovine serum. After treatment in DMEM with 1 μM cycloartenyl ferulate (CAF) for 22 h, it is further stimulated for 2 h in 1 μg/ml lipopolysaccharide (LPS).
The nucleoprotein of RAW264.7 cell is extracted with Transfactor Extraction kit (BD Biosciences, USA), and then is bound with the following NF-κB consensus sequence of biotin-labeling reaction for 60 min in reaction solution consisting 100 mM HEPES (pH 7.6), 5 mM EDTA, 50 mM ammonium sulfate, 5 mM DTT, 150 mM KCl, 1% (v/v) Tween20 and 0.0001% poly (dI-dC) (Amersham Biosciences, USA).
Except these experimental groups, control group reacting with 90-fold unlabeled consensus sequence, along with supershift group using anti-p50 polyclonal antibody (Abcam, USA) and anti-p65 polyclonal antibody (Santa Cruz Biotechnology, INC., USA) are established to make comparison. […]
The peroxidase activity is detected with Immobilon Western Chemiluminescent HRP substrate (Millipore, USA) and the luminous intensity is quantified by Image J (National Institutes of Health, USA) as shown in FIG. 2. […]

COc1cc(/C=C/C(=O)O)ccc1O [ferulic acid]
NF-κB activation: barely inhibits

From patent publication US20090326259A1, “NF-Kappabeta Activation Inhibitor” (Tokyo University of Marine Science and Technology, priority 2006, published 2009)
